The values that follow are results of earlier work, collected in US20130005740A1, “PROCESS FOR PREPARATION OF OVER-THE-COUNTER GELATIN OR PECTIN-BASED DRUG DELIVERY” (7267207 CANADA LIMITED CORPORATION, priority 2009, published 2013).

The structures appear in SMILES notation.

The conditions of this data set: unlike aspirin.

For the compound `CC(C)Cc1ccc(C(C)C(=O)O)cc1` (stereo not shown) [ibuprofen], the stability in solution entry is reported as “stable in solution”.
